Test [1] deals with HCT116 MTAP WT cells. In words: Proliferation inhibition of HCT116 cells in vitro (CellTiter Glo, 6 days). The format is cell-based. Conditions: Homo sapiens, HCT-116, 144 h, read-out: Cell proliferation inhibition rate HCT116 MTAP WT IC50 (nm).
The subject of test [2] is HCT116-MTAP-KO (MTAP null) cells. The experiment in a line: Proliferation inhibition of HCT116 MTAP-KO cells in vitro (CellTiter Glo, 6 days). The class given is cell-based. Particulars: HCT116-MTAP null, 144 h, read-out: Cell proliferation inhibition rate HCT116-MTAP null IC50 (nm). For orientation: Cellular ATP, detected with luciferase, serves as a proxy for viable cell number.

Experimental findings from patent US20240376126A1, “PRMT5 INHIBITOR AND THE USE THEREOF” (CYTOSINLAB THERAPEUTICS CO., LTD., priority 2022, published 2024) are described below.

For `COCC(C1CC1)N(Cc1nc2cc(Br)ccc2s1)C(=O)c1ccc2nc(N)c(C)cc2c1` (stereo not shown) [Example 151], the IC50 in test [1] was in the range of 1 to 10 µM; in test [2], 0.1 to 1 µM.
The matching figures for `CC(c1ncccn1)N(Cc1nc2cc(C(F)(F)F)ccc2s1)C(=O)c1ccc2nc(N)c3c(c2c1)CCC3` (stereo not shown) [Example 153]: 1 to 10 µM and 0.1 to 1 µM.
In the same order, the values of `COCC(C1CC1)N(Cc1nc2cc(C(F)(F)F)ccc2s1)C(=O)c1ccc2nc(N)c3c(c2c1)CCC3` (stereo not shown) [Example 154] are 1 to 10 µM and 0.1 to 1 µM.
Regarding `CC(c1ncccn1)N(Cc1nc2ccccn2n1)C(=O)c1ccc2nc(N)c3c(c2c1)CCC3` (stereo not shown) [Example 155], the IC50 in test [1] was in the range of 1 to 10 µM; in test [2], 0.1 to 1 µM.
Regarding `CC(c1ncccn1)N(Cc1cc2n(n1)CCOC2)C(=O)c1ccc2nc(N)c3c(c2c1)CCC3` (stereo not shown) [Example 156], the IC50 is 1 to 10 µM in test [1] and 0.1 to 1 µM in test [2].
Turning to `CC(c1ncccn1)N(Cc1cn2c(n1)COCC2)C(=O)c1ccc2nc(N)c3c(c2c1)CCC3` (stereo not shown) [Example 157], the IC50 lay within 1 to 10 µM in test [1] and 0.1 to 1 µM in test [2].
As for `Cc1cn2c(n1)c(N)nc1cc(F)c(C(=O)N(Cc3cn4ccccc4n3)CC(C)C)cc12` [Example 158], the IC50 in test [1] is 1 to 10 µM; in test [2] it was 0.1 to 1 µM.
Take `CCN(Cc1cc2ccccn2n1)C(=O)c1ccc2nc(N)c3cnc(C)n3c2c1` [Example 159]: the figures for the IC50 in test [1] and in test [2] were 1 to 10 µM and 0.1 to 1 µM, respectively.
Turning to `Cc1ncc2c(N)nc3ccc(C(=O)N(Cc4nc5cnccc5s4)CC(C)C)cc3n12` [Example 160], the IC50 in test [1] lay within 1 to 10 µM; in test [2] it was 0.1 to 1 µM.
Regarding `Cc1nc(C)n2c1c(N)nc1cc(F)c(C(=O)N(Cc3cn4ccccc4n3)CC(C)C)cc12` [Example 162], the IC50 in test [1] lay within 1 to 10 µM; in test [2], 0.1 to 1 µM.
For the molecule `CCN(C(=O)c1cc2c(cc1F)nc(N)c1cnc(C)n12)C(C)c1cn2ccccc2n1` (stereo not shown) [Example 163], the figures for the IC50 in test [1] and in test [2] were 1 to 10 µM and 0.1 to 1 µM, respectively.
As for `COCCN(Cc1cn2ccccc2n1)C(=O)c1cc2c(cc1C)nc(N)c1cnc(C)n12` [Example 166], the IC50 in test [1] is 0.1 to 1 µM; in test [2], less than 0.1 µM.
As to `Cc1nc(C)n2c1c(N)nc1ccc(C(=O)N(C)C3COc4cc(-c5cnn(C(F)(F)F)c5)ccc43)cc12` (stereo not shown) [Example 167], the IC50 in test [1] fell in the range of 1 to 10 µM; in test [2], 0.1 to 1 µM.
Take `Cc1cn2c(n1)c(N)nc1ccc(C(=O)N3C(C)COC[C@@H]3c3cn4ccccc4n3)cc12` (stereo partly shown) [Example 168]: the IC50 in test [1] is 1 to 10 µM; in test [2] it was 0.1 to 1 µM.
In the same order, the values of `Cc1ncc2c(N)nc3cc(F)c(C(=O)N(Cc4cn5ccccc5n4)C45CC(C4)C5)cc3n12` [Example 169] are 0.1 to 1 µM and less than 0.1 µM.
Take `Cc1cn2c(n1)c(N)nc1cc(F)c(C(=O)N3C(C)COC[C@@H]3c3cn4cc(C(F)(F)F)ccc4n3)cc12` (stereo partly shown) [Example 170]: the values for the IC50 in test [1] and in test [2] were 0.1 to 1 µM and less than 0.1 µM, respectively.
For the molecule `COCCN(C(=O)c1cc2c(cc1F)nc(N)c1cnc(C)n12)C(C)c1cn2ccccc2n1` (stereo not shown) [Example 171], the IC50 is 1 to 10 µM in test [1] and 0.1 to 1 µM in test [2].
`Cc1ncc2c(N)nc3cc(F)c(C(=O)N4C(C)COC[C@@H]4c4cn5cc(C(F)(F)F)ccc5n4)cc3n12` (stereo partly shown) [Example 172]: the IC50 in test [1] was 0.1 to 1 µM; in test [2], less than 0.1 µM.
In the case of `[2H]C([2H])([2H])N(Cc1cn2cc(C(F)(F)F)ccc2n1)C(=O)c1cc2c(cc1F)nc(N)c1cnc(C)n12` [Example 173], the IC50 in test [1] is 1 to 10 µM; in test [2] it was 0.1 to 1 µM.
In the case of `Cc1cn2c(n1)c(N)nc1cc(F)c(C(=O)N3C(C)COC[C@@H]3c3cn4ccccc4n3)cc12` (stereo partly shown) [Example 174], the IC50 in test [1] was less than 0.1 µM; in test [2], 0.1 to 1 µM.
With `Cc1ncc2c(N)nc3cc(F)c(C(=O)N4C(C)COC[C@@H]4c4cn5ccccc5n4)cc3n12` (stereo partly shown) [Example 176], the results for the IC50 in test [1] and in test [2] were 1 to 10 µM and 0.1 to 1 µM, respectively.
For `COC1CC(N(Cc2cn3ccccc3n2)C(=O)c2cc3c(cc2F)nc(N)c2cnc(C)n23)C1` (stereo not shown) [Example 177], the IC50 in test [1] was in the range of 1 to 10 µM; in test [2], 0.1 to 1 µM.
`CCN(Cc1cn2cc(C(F)(F)F)ccc2n1)C(=O)c1cc2c(cc1F)nc(N)c1cnc(C)n12` [Example 178]: the IC50 in test [1] was 1 to 10 µM; in test [2], 0.1 to 1 µM.
On to `Cc1ncc2c(N)nc3cc(F)c(C(=O)N(Cc4cn5ccccc5n4)C4CCC4)cc3n12` [Example 179], for which the figures for the IC50 in test [1] and in test [2] were 1 to 10 µM and less than 0.1 µM, respectively.
Turning to `Cc1ncc2c(N)nc3cc(F)c(C(=O)N(Cc4cn5ccccc5n4)CC(F)(F)F)cc3n12` [Example 180], the IC50 in test [1] lay within 1 to 10 µM; in test [2], 0.1 to 1 µM.
As for `Cc1ncc2c(N)nc3cc(F)c(C(=O)N(Cc4cn5ccccc5n4)c4cnn(C)c4)cc3n12` [Example 181], the values for the IC50 in test [1] and in test [2] were 1 to 10 µM and 0.1 to 1 µM, respectively.
As for `Cc1ncc2c(N)nc3cc(F)c(C(=O)N(Cc4cn5cc(C(F)(F)C(F)(F)F)ccc5n4)CC(C)C)cc3n12` [Example 182], the IC50 was 0.1 to 1 µM in test [1] and less than 0.1 µM in test [2].
Turning to `Cc1ncc2c(N)nc3cc(F)c(C(=O)N(Cc4cn5cc(C(F)(F)F)ccc5n4)c4cnn(C)c4)cc3n12` [Example 183], the IC50 in test [1] was 1 to 10 µM; in test [2], less than 0.1 µM.
In the case of `CCN(Cc1cn2ccccc2n1)C(=O)c1cc2c(cc1F)nc(N)c1cnc(C)n12` [Example 184], the IC50 in test [1] lay in the range of 1 to 10 µM; in test [2], 0.1 to 1 µM.
In the same order, the values of `COC1CCCC1N(Cc1cn2ccccc2n1)C(=O)c1cc2c(cc1F)nc(N)c1cnc(C)n12` (stereo not shown) [Example 185] are 1 to 10 µM and less than 0.1 µM.
In the case of `Cc1cn2c(n1)c(N)nc1cc(F)c(C(=O)N(Cc3nc4ccccn4c3F)CC(C)C)cc12` [Example 188], the IC50 in test [1] is 1 to 10 µM; in test [2], less than 0.1 µM.
Consider `Cc1ncc2c(N)nc3cc(F)c(C(=O)N(Cc4cn5ccccc5n4)C4CCCC4O)cc3n12` (stereo not shown) [Example 190], for which the IC50 was in the range of 1 to 10 µM in test [1] and 0.1 to 1 µM in test [2].
Consider `CCN(Cc1cn2ccccc2n1)C(=O)c1cc2c(cc1Cl)nc(N)c1cnc(C)n12` [Example 192], for which the IC50 in test [1] was 1 to 10 µM; in test [2], 0.1 to 1 µM.
Turning to `Cc1ncc2c(N)nc3cc(F)c(C(=O)N(Cc4nc5ccccn5c4F)CC(C)C)cc3n12` [Example 194], the values for the IC50 in test [1] and in test [2] were 1 to 10 µM and less than 0.1 µM, respectively.
For the molecule `Cc1ncc2c(N)nc3cc(F)c(C(=O)N(Cc4cn5cccc(C(F)(F)F)c5n4)c4cnn(C)c4)cc3n12` [Example 195], the IC50 lay within 1 to 10 µM in test [1] and 0.1 to 1 µM in test [2].
The matching figures for `Cc1ncc2c(N)nc3cc(F)c(C(=O)N(Cc4cn5ccccc5n4)c4cccnc4)cc3n12` [Example 199]: 1 to 10 µM and 0.1 to 1 µM.
Regarding `Cc1ncc2c(N)nc3cc(F)c(C(=O)N4C(c5cc6ccccn6n5)COC[C@H]4C)cc3n12` (stereo partly shown) [Example 203], the IC50 in test [1] was 1 to 10 µM; in test [2], less than 0.1 µM.
On to `Cc1ncn2c1c(N)nc1cc(F)c(C(=O)N(Cc3nc4ccccn4c3F)c3cnn(C)c3)cc12` [Example 205], for which the IC50 in test [1] is 1 to 10 µM; in test [2] it was less than 0.1 µM.
On to `CCN(Cc1cn2cc(C(F)(F)F)ncc2n1)C(=O)c1cc2c(cc1F)nc(N)c1c(C)ncn12` [Example 207], for which the figures for the IC50 in test [1] and in test [2] were 1 to 10 µM and less than 0.1 µM, respectively.
For `CCN(Cc1nc2ccccn2c1F)C(=O)c1cc2c(cc1F)nc(N)c1c(C)ncn12` [Example 209], the IC50 is 1 to 10 µM in test [1] and less than 0.1 µM in test [2].
On to `Cc1ncc2c(N)nc3cc(Cl)c(C(=O)N(Cc4cn5cc(C(F)(F)F)ccc5n4)c4cnn(C)c4)cc3n12` [Example 210], for which the IC50 was 1 to 10 µM in test [1] and 0.1 to 1 µM in test [2].
Consider `Cc1ncc2c(N)nc3cc(F)c(C(=O)N(Cc4cc5c(cn4)COC5)c4cnn(C)c4)cc3n12` [Example 211], for which the IC50 in test [1] was in the range of 1 to 10 µM; in test [2] it was 0.1 to 1 µM.
For the molecule `CCN(Cc1cn2nc(C(F)(F)F)ccc2n1)C(=O)c1cc2c(cc1F)nc(N)c1c(C)ncn12` [Example 213], the IC50 lay within 1 to 10 µM in test [1] and 0.1 to 1 µM in test [2].
In the same order, the values of `CCN(Cc1cc2c(cn1)OCC2)C(=O)c1cc2c(cc1F)nc(N)c1cnc(C)n12` [Example 214] are 1 to 10 µM and 0.1 to 1 µM.
In the case of `CCN(C(=O)c1cc2c(cc1F)nc(N)c1c(C)ncn12)C1COc2cc(C(F)(F)F)ccc21` (stereo not shown) [Example 215], the values for the IC50 in test [1] and in test [2] were 1 to 10 µM and less than 0.1 µM, respectively.
With `CCN(Cc1ccc2c(c1)CCO2)C(=O)c1cc2c(cc1F)nc(N)c1cnc(C)n12` [Example 216], the results for the IC50 in test [1] and in test [2] were 1 to 10 µM and 0.1 to 1 µM, respectively.
In the same order, the values of `CCN(Cc1cn2cc(CCN3CCOCC3)ccc2n1)C(=O)c1cc2c(cc1F)nc(N)c1cnc(C)n12` [Example 217] are 1 to 10 µM and 0.1 to 1 µM.
Turning to `CCN(Cc1cc2ccc(C(F)(F)F)cn2n1)C(=O)c1cc2c(cc1F)nc(N)c1c(C)ncn12` [Example 218], the IC50 in test [1] was 1 to 10 µM; in test [2], less than 0.1 µM.
For `Cc1ncc2c(N)nc3cc(F)c(C(=O)N(Cc4ccc5c(c4)CCO5)c4cnn(C)c4)cc3n12` [Example 219], the IC50 in test [1] lay within 1 to 10 µM; in test [2] it was 0.1 to 1 µM.
`Cc1ncn2c1c(N)nc1cc(F)c(C(=O)N(c3cnn(C)c3)C3COc4ccccc43)cc12` (stereo not shown) [Example 221]: the IC50 in test [1] is 1 to 10 µM; in test [2], less than 0.1 µM.
In the same order, the values of `CCN(C(=O)c1cc2c(cc1F)nc(N)c1cnc(C)n12)C1COc2cc(C(F)(F)F)ccc21` (stereo not shown) [Example 222] are 1 to 10 µM and less than 0.1 µM.
On to `CCN(C(=O)c1cc2c(cc1F)nc(N)c1c(C)ncn12)C1COc2cc(-c3cccnc3)ccc21` (stereo not shown) [Example 223], for which the results for the IC50 in test [1] and in test [2] were 1 to 10 µM and 0.1 to 1 µM, respectively.
With `CCN(C(=O)c1cc2c(cc1F)nc(N)c1c(C)ncn12)C1COc2ccccc21` (stereo not shown) [Example 224], the IC50 is 1 to 10 µM in test [1] and 0.1 to 1 µM in test [2].
